Some test systems named below: BT-549 breast; DU-145 prostate; HS 578T breast; MDA-MB-231 breast; MDA-MB-435; MDA-N; NCI/ADR-RES ovarian; PC-3 prostate; T-47D breast; M19-MEL melanoma; DMS 273 small cell lung; P388/ADR leukemia; SN12K1 renal.
Holding throughout (experiment): NCI tumour cell line growth inhibition, 48 h

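48-hour exposure; five concentrations; linearly interpolated endpoints. GI50 = concentration required for 50% inhibition of growth. TGI marks complete inhibition of growth.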 Where only a bound is given, the exact number is not on record here.

For `NS(=O)(=O)c1ccc(N=Nc2nc3[nH]cnc(=S)c3[nH]2)cc1`, the TGI in the test on BT-549 breast was above 37.9 µM; in the test on DU-145 prostate it was 41.1 µM; with HS 578T breast it was above 87 µM; in the test on MDA-MB-231 breast it was above 25.3 µM; with MDA-MB-435 it was above 100 µM; with MDA-N, above 38.9 µM. For the same molecule, the values for the TGI in the test with NCI/ADR-RES ovarian, with PC-3 prostate and in the test with T-47D breast were 14.5 µM, above 41.4 µM and above 25.3 µM, respectively.
As to `CCN(CC)CCOCC1CCCN2CCCCC12` (centres undefined), the TGI in the test on BT-549 breast, in the test on DU-145 prostate, in the test on HS 578T breast, with MDA-MB-231 breast, in the test on MDA-MB-435 and in the test on MDA-N was above 100 µM each time. Further, the TGI in the test with NCI/ADR-RES ovarian, with PC-3 prostate and in the test on T-47D breast was above 100 µM in each case.
In turn, `C=CCCCCn1c2ccccc2c2c(C)c3c[n+](C)ccc3c(C)c21` came in with a TGI with M19-MEL melanoma of 1410 nM.
Take `Clc1ccc2c(Cl)nc(-c3ccccc3)nc2c1`: the TGI was above 100 µM in the test on DMS 273 small cell lung and above 100000 nM in the test on M19-MEL melanoma.
As to `COc1cc(O)c2c(c1O)C(=O)c1cc(C)ncc1C2=O`, in the test on M19-MEL melanoma, the TGI turned out to be 23800 nM.
With `OCCN1CCN(c2nc(Nc3ccc(-c4nc5ccccc5[nH]4)cc3)c3cn[nH]c3n2)CC1`, the GI50 with HS 578T breast was 2150 nM; in the test on MDA-MB-435 it was 1820 nM; with PC-3 prostate, 1640 nM. Further, the TGI in the test on HS 578T breast stood at 5.33 µM; in the test on MDA-MB-435, 3.29 µM; in the test with PC-3 prostate, 3.13 µM.
As for `CCCCCCCSCC1OC(n2cnc3c(N)ncnc32)C(O)C1O` (centres undefined), the TGI in the test with DMS 273 small cell lung came to 54.2 µM.
Take `Oc1c2c(c3c4c1N=CC=4CCN=3)C1(C=C(Br)C(O)C(Br)=C1)CCN2` (centres undefined): the TGI was 3.45 µM in the test with DMS 273 small cell lung; 1050 nM in the test on M19-MEL melanoma; 2.77 µM with NCI/ADR-RES ovarian; 4.81 µM in the test on P388/ADR leukemia; 10.7 µM with SN12K1 renal.
Turning to `Cc1n(-c2ccccc2)c2c([n+]1Cc1ccc([N+](=O)[O-])cc1)C(=O)c1ccccc1C2=O`, the TGI in the test on BT-549 breast amounted to 3.18 µM; with DMS 273 small cell lung, 3.87 µM; in the test with DU-145 prostate, 3.28 µM; in the test on HS 578T breast, 5.51 µM; with M19-MEL melanoma, 2930 nM; in the test with MDA-MB-231 breast, 3.08 µM. Also, the TGI stood at 3.12 µM in the test with MDA-MB-435; 3.16 µM in the test on MDA-N; 5.61 µM with NCI/ADR-RES ovarian; 7.25 µM with PC-3 prostate; 3.43 µM in the test with T-47D breast.
Take `Nc1nc(Sc2ccc([N+](=O)[O-])cn2)c2[nH]cnc2n1`: the TGI in the test with BT-549 breast was 52.1 µM; in the test with DU-145 prostate, 43.8 µM; in the test with HS 578T breast, 77.8 µM; with MDA-MB-231 breast, 35.1 µM; in the test with MDA-MB-435, above 46.1 µM; in the test with MDA-N, 34.6 µM. For the same molecule, the TGI was 30.3 µM in the test with NCI/ADR-RES ovarian, 47.6 µM in the test on PC-3 prostate and above 42.3 µM with T-47D breast.
